Data as given in US7959951B2, “Nitric oxide and its biomedical significance” (The Research Foundation at State University of New York, priority 2002, dated 2011).

System: E. coli bacteria
Experiment: Inhibition of bacterial growth in LB broth culture
Type: cell-based
Details: One μg/ml in LB broth, 37° C, streaked on LB-agar
Procedure: A dried, powdered, formulation of a 1:1 mixture of the wheat grass extract and white willow bark extract prepared in Example 1 above was tested for its ability to inhibit bacterial growth in culture. The formulation was reconstituted in 10 ml of LB broth (Amersham Biosciences, Inc.). The broth was then inoculated with E. coli bacteria and incubated for 5 and 24 hours at 37° C. 20 μl of the cultures were streaked on LB-agar plates and incubated overnight at 37° C. […] An additional control experiment was conducted with the known antibacterial agent, SNAP. One μg/ml SNAP was added to LB broth. The broth was then inoculated with E. coli bacteria and incubated for 5 and 24 hours at 37° C. 20 μl of the cultures were streaked on LB-agar plates and incubated overnight at 37° C. Bacterial growth was decreased in the SNAP culture at 5 and 24 hours, as compared to the control.

CC(=O)N[C@@H](C(=O)O)C(C)(C)SN=O (racemic) [SNAP]
bacterial growth at 5 and 24 hours compared to control: decreased
